For 3 compounds, causal prophylactic activity, toxicological problem and rate of efficacy results are on record in patent US6448252B1, “Treatment of equine protozoal myeloencephalitis” (IDEXX Pharmaceuticals, Inc., priority 1996, dated 2002).

The test system of data set [1] is Plasmodium berghei yoelii. To be noted: rodent malaria; cited from earlier work.
The conditions of data set [2]: horses, oral, 1 mg pyrimethamine/kg once a day for 10 days; cited from earlier work.
Data set [3] relates to Sarcocystis neurona. Conditions: EPM in equines; sulfadiazine as the sulfonamide given with pyrimethamine. The protocol: The amounts of each component are based on a liquid suspension having a total volume of about 1 liter. As mentioned above, a useful dosage, e.g., for a 1,000 pound horse infected with Sarcocystis neurona (as evidenced by the presence of the protozoan in a sample from the subject's cerebrospinal fluid) is about 30 mL of the suspension, once a day, given on an empty stomach in the morning.

`COc1cc(NC(C)CCCN)c2ncccc2c1` (stereo not shown) [Primaquine diphosphate]: in data set [1], the causal prophylactic activity entry is given as “causal prophylactic activity”.
Take `CCc1nc(N)nc(N)c1-c1ccc(Cl)cc1` [pyrimethamine]: the toxicological problem result in data set [2] is recorded as “does not present a serious toxicological problem”.
With `Nc1ccc(S(=O)(=O)Nc2ncccn2)cc1` [sulfadiazine], the causal prophylactic activity entry in data set [1] is reported as “causal prophylactic activity”. In addition, the rate of efficacy in data set [3] is given as > 70%.
